Assay results taken from publication PMC10791743, “Selective CK1α degraders exert antiproliferative activity against a broad range of human cancer cell lines” (Nature Communications, 2024).
“And” between values parts separate entries of the source, which are not always exact repeats. Identical values can stand only once.

Tests used:
CK1α = CK1α (Homo sapiens, UniProt P48729+Q96SW2); experiment: CK1α HiBiT live-cell kinetic degradation assay (HEK293 cells); format: cell-based; parameters: engineered by CRISPR/Cas9 to express endogenous CK1α (HEK293 cells) with a HiBiT tag; settings: for CK1a Percent Maximum Degradation: listed as SJ10040
Excerpt: To measure cellular protein levels, we used cell lines that have been engineered by CRISPR/Cas9 to express endogenous CK1α (HEK293 cells) or IKZF1 (Jurkat cells) with a HiBiT tag, which when coupled with LgBiT expression forms NanoBiT, a bioluminescent protein that can be used for kinetic studies of protein degradation. […] Cell viability was also monitored with CellTiter Glo 2.0 (Promega) at the completion of the experiment to ensure that loss of protein was not a consequence of a loss of cell viability.
IKZF1-HiBiT Jurkat LgBiT stable cells were seeded at 60,000 cells/well in 50% growth media/50% CO2 independent medium supplemented with 10% FBS and 1× Endurazine substrate. […] A dose–response curve was generated by performing 3-fold dilutions of each compound including a DMSO-only control in growth media. For live cell kinetic degradation assays, diluted compounds were added to CK1α and β-catenin plates and placed in a GloMax Discover (Promega, Cat. #GM3000) preheated to 37 °C or added to IKZF1 plates and placed in a CLARIOstar Plus (BMG LABTECH) preheated to 37 °C.
Relative protein level was determined based on normalization to the DMSO control and reported at Fractional RLUs. Degradation rate and degradation maximums were calculated from Fractional RLUs as previously described[38] using GraphPad Prism software. β-catenin stabilization time of onset for each concentration curve was calculated in GraphPad Prism by fitting an unconstrained plateau followed by one phase association model using the equation below (Y = IF(X < X0, Y0,Y0+(Plateau−Y0)*(1−exp(−K*(X−X0))))). The parameter, X0 was used as time of onset for each compound concentration.

CRBN−/− MOLM-13 cells = experiment: Wild type versus CRBN−/− MOLM-13 cells (viability, CRBN dependence); format: cell-based, human; parameters: key to cell viability, dose-response replicate values: % viability = 100 − % activity (RLU normalized to negative control); settings: for cell viability, dose-response replicate values: MOLM-13 CRBN KO
Excerpt: Having identified SJ7095 as a compound with a potent antiproliferative effect in MOLM-13 cells, we next examined whether the observed effect was CRBN-dependent. […] In an orthogonal approach, we tested SJ7095 in wild-type and CRBN-knockout MOLM-13 cells in a cell viability assay (Supplementary Fig. 1b).
CRBN^−/− MOLM-13 cells were created using CRISPR-Cas9 technology. Briefly, 1 million MOLM-13 cells were transiently transfected with precomplexed ribonuclear proteins (RNPs) consisting of 400 pmol of chemically modified sgRNA (Synthego), 135pmol of SpCas9 protein (St. Jude Protein Production Core), and 500 ng of pMaxGFP (Lonza) via nucleofection (Lonza, 4D-Nucleofector™ X-unit) using solution SF and program EO100 in a 100 µl cuvette according to the manufacturer’s recommended protocol. Transfected cells (GFP+) were single-cell sorted by flow cytometry (St. Jude Flow Cytometry and Cell Sorting Shared Resource) into 96-well tissue culture-treated plates 5 days post nucleofection. Cells were clonally expanded and screened for the desired targeted modification (out-of-frame indels) via targeted deep sequencing using gene-specific primers with partial Illumina adapter overhangs as previously described. Genotyping of clones was performed using CRIS.py[59]. Knockout clones were identified as clones containing only out-of-frame indels. PowerPlex® Fusion System (Promega) was used to confirm final clone identification (Hartwell Center for Biotechnology at St. Jude). All clones tested negative for mycoplasma by the MycoAlert^TMPlus Mycoplasma Detection Kit (Lonza). CRBN knockout confirmed by immunoblot (Supplementary Material).
MOLM-13 cells were plated in Corning 8804BC white 384-well assay plates at the appropriate cell number per well and incubated overnight at 37 °C in a humidified 5 % CO2 incubator. Compounds were transferred to the assay plate from a dose-response plate using a Labcyte Echo 650 Acoustic Liquid Handler (Beckman Coulter , USA). Cytotoxicity was determined following 72 h of incubation using Promega’s CellTiter-Glo reagent according to the manufacturer’s recommendation.
Luminescence was measured on the Envision plate reader (PerkinElmer, USA). Raw luminescence relative light unit (RLU) values for each compound at each concentration were normalized to obtain % activity using the following equation (1): 100 × [(mean(negctrl) – compound)/(mean (negctrl) – mean (posctrl))]. The % activity was converted to % viability using the following equation (2):
(100 – % activity), and then pooled from replicate experiments prior to fitting. Here, negctrl and posctrl refer to the negative (DMSO) and positive controls (staurosporine) on each plate. Dose-response curves were fit to the Hill equation using the GraphPad Prism (version 10). […]

Chain of CK1α (P48729 whole entry): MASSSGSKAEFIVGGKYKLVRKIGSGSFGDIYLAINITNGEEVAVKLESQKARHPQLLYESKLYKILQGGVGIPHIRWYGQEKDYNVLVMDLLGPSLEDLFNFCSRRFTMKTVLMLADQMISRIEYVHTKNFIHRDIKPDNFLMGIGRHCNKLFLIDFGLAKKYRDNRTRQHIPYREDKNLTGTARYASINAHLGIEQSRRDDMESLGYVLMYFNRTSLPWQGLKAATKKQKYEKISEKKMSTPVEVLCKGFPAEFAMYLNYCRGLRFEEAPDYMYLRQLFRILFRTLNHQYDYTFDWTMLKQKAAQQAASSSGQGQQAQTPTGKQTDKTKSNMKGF
Chain of CK1α (Q96SW2 whole entry): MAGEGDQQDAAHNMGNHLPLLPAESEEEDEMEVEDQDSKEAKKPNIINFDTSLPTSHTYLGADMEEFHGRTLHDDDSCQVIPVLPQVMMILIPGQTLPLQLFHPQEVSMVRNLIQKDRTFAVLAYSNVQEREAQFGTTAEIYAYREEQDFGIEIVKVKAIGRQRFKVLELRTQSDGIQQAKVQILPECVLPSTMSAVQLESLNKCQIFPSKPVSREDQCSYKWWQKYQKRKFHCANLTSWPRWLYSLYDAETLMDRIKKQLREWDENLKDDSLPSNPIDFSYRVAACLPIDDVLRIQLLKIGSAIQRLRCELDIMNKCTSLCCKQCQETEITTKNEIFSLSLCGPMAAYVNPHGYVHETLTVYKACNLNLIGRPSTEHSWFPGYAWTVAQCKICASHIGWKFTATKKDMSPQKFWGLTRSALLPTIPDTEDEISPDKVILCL
Chain of CK1α (Q16531 whole entry partner): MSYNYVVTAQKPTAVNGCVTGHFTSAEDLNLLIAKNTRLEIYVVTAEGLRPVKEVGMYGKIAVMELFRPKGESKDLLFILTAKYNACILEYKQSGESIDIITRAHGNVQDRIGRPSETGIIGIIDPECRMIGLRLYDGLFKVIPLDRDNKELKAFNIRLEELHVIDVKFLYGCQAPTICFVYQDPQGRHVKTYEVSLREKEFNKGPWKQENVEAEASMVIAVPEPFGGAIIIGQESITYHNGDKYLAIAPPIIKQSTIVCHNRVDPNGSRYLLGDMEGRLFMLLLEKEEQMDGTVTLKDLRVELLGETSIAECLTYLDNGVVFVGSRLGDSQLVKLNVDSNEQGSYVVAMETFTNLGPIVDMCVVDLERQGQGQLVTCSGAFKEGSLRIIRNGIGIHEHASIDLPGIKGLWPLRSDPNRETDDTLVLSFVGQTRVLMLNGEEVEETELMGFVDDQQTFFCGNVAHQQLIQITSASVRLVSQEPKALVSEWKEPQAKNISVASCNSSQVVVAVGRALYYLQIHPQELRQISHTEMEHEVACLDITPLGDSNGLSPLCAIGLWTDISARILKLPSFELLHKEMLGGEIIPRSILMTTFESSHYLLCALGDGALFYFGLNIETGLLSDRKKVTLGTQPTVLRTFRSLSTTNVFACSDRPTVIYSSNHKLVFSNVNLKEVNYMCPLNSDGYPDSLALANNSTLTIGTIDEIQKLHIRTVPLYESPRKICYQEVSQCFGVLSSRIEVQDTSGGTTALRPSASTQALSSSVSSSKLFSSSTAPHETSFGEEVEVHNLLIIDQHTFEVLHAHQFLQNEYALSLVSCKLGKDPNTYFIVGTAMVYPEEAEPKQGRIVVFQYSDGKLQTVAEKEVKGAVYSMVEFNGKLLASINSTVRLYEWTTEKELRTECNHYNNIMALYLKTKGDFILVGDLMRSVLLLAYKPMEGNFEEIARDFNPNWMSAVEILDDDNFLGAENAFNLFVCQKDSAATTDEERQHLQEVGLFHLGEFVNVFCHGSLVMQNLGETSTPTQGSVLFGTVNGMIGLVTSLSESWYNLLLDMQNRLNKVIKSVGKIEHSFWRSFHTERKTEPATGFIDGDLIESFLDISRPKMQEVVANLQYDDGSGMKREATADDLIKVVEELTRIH

Cc1cccc(C(=O)Nc2ccc3c(c2)CN(C2CCC(=O)NC2=O)C3=O)c1 (stereo not shown) [SJ0040]
CK1a Degradation Rate Constant (CK1α; 0.111 uM): 1.349 λ/hour
CK1a Percent Maximum Degradation (CK1α; 0.111 uM): 87.09% and 81.49% and 82.97%
CK1a Degradation Rate Constant (CK1α; 0.333 uM): 1.489 λ/hour
CK1a Percent Maximum Degradation (CK1α; 0.333 uM): 81.30% and 83.99% and 85.23%
CK1a Degradation Rate Constant (CK1α; 1 uM): 1.645 λ/hour
CK1a Percent Maximum Degradation (CK1α; 1 uM): 85.32% and 82.59% and 87.28%
CK1a Degradation Rate Constant (CK1α; 3 uM): 1.768 λ/hour
CK1a Percent Maximum Degradation (CK1α; 3 uM): 84.24% and 83.34% and 82.73%
CK1a Degradation Rate Constant (CK1α; 10 uM): 1.807 λ/hour
CK1a Percent Maximum Degradation (CK1α; 10 uM, replicates): 89.47% and 88.18% and 86.50%
Dmax at 0.111 µM (CK1α; CK1, 0.111 uM, read-out: CK1a Percent Maximum Degradation): 85.1%
Dmax at 0.333 µM (CK1α; CK1, 0.333 uM, read-out: CK1a Percent Maximum Degradation): 88.2%
Dmax at 1 µM (CK1α; CK1, 1 uM, read-out: CK1a Percent Maximum Degradation): 87.9%
Dmax at 3 µM (CK1α; CK1, 3 uM, read-out: CK1a Percent Maximum Degradation): 87.3%
Dmax at 10 µM (CK1α; CK1, 10 uM, replicates, read-out: CK1a Percent Maximum Degradation): 89%
CK1α degradation depth (HiBiT) (CK1α; HEK293): near-complete degradation
DC50 (CK1α; HEK293, at 4 h): 10 nM
viability at 0.00126002 µM (CRBN−/− MOLM-13 cells; Homo sapiens, MOLM-13, MOLM-13 CRBN KO, Conc 0.00126002 uM, read-out: cell viability, dose-response replicate values): 97.2%
viability at 0.0113402 µM (CRBN−/− MOLM-13 cells; Homo sapiens, MOLM-13, MOLM-13 CRBN KO, Conc 0.0113402 uM, read-out: cell viability, dose-response replicate values): 96.7%
viability at 0.0340206 µM (CRBN−/− MOLM-13 cells; Homo sapiens, MOLM-13, MOLM-13 CRBN KO, Conc 0.0340206 uM, read-out: cell viability, dose-response replicate values): 93.1%
viability at 0.102062 µM (CRBN−/− MOLM-13 cells; Homo sapiens, MOLM-13, MOLM-13 CRBN KO, Conc 0.102062 uM, read-out: cell viability, dose-response replicate values): 89.2%
viability at 0.306185 µM (CRBN−/− MOLM-13 cells; Homo sapiens, MOLM-13, MOLM-13 CRBN KO, Conc 0.306185 uM, read-out: cell viability, dose-response replicate values): 88.4%
viability at 0.918556 µM (CRBN−/− MOLM-13 cells; Homo sapiens, MOLM-13, MOLM-13 CRBN KO, Conc 0.918556 uM, read-out: cell viability, dose-response replicate values): 97.5%
viability at 2.75567 µM (CRBN−/− MOLM-13 cells; Homo sapiens, MOLM-13, MOLM-13 CRBN KO, Conc 2.75567 uM, read-out: cell viability, dose-response replicate values): 84.5%
viability at 8.267 µM (CRBN−/− MOLM-13 cells; Homo sapiens, MOLM-13, MOLM-13 CRBN KO, Conc 8.267 uM, read-out: cell viability, dose-response replicate values): 48.7%
cell viability, dose-response replicate values (CRBN−/− MOLM-13 cells; Conc 0.00126002 uM): 101.892 and 99.1853
cell viability, dose-response replicate values (CRBN−/− MOLM-13 cells; Conc 0.00378006 uM): 77.9399 and 92.8153 and 102.961
cell viability, dose-response replicate values (CRBN−/− MOLM-13 cells; Conc 0.0113402 uM): 90.8518 and 98.3247
cell viability, dose-response replicate values (CRBN−/− MOLM-13 cells; Conc 0.0340206 uM): 99.2582 and 100.85
cell viability, dose-response replicate values (CRBN−/− MOLM-13 cells; Conc 0.102062 uM): 95.1601 and 101.209
cell viability, dose-response replicate values (CRBN−/− MOLM-13 cells; Conc 0.306185 uM): 92.1664 and 101.967
cell viability, dose-response replicate values (CRBN−/− MOLM-13 cells; Conc 0.918556 uM): 93.1747 and 96.6395
cell viability, dose-response replicate values (CRBN−/− MOLM-13 cells; Conc 2.75567 uM): 84.7802 and 96.7661
cell viability, dose-response replicate values (CRBN−/− MOLM-13 cells; Conc 8.267 uM): 53.0309 and 66.5957
